Test results: US20230219898A1, “COMPOUNDS AND METHODS FOR BLOCKING APOPTOSIS AND INDUCING AUTOPHAGY” (President and Fellows of Harvard College, priority 2020, published 2023)
Like-named read-outs stand apart in the source and are kept apart here.

Key:
MEFs = assay: RDA in MEFs induced by mTNFα and 5Z-7-Oxozeaenol, cell survival; type: cell-based, mouse; settings: for protection against RDA models: 10 μM; for IC50: Mus musculus, FIG. 5c, mTNFα 1 ng/mL, 5Z-7-Oxozeaenol 0.5 μM, 8 h, read-out: IC50 of inhibition of RDA
Experimental: (§1) The rates of cell death were measured in triplicate or quadruplicate in a 96-well or 384-well plate by using SYTOX Green Nucleic Acid Stain (Invitrogen) or ToxiLight Non-destructive Cytotoxicity BioAssay Kit (Lonza). The intensity of luminescence was determined in an EnSpire Multimode Plate Reader (PerkinElmer). Cytotoxicity is expressed as percentages of cell death per well after deducting the background signal in non-induced cells and compared to that of the maximal cell death with 100% Lysis Reagent. The rates of cell viability were determined by using CellTiter-Glo Luminescent Cell Viability Assay (Promega) following the manufacturer's protocol and the results are expressed as percentages of luminescence intensity per well after deducting the background signal in blank well and compared to that of the viability in the non-treated wells. Concentration of drugs used for inducing or inhibiting cell death, mTNFα: 1 ng/ml; 5Z-7-Oxozeaenol: 0.5 μM; Velcade: 50 nM; Apt-1/ICCB-19/ICCB-19i/Nec-1s: 10 μM.

mTOR = mTOR signalling immunoblotting in MEFs; type: cell-based, mouse; settings: 10 μM
Source text: Cell lysates analyzed by immunoblotting using indicated antibodies.

Human Jurkat cells = assay: Velcade-induced apoptosis of Jurkat cells, CellTiter-Glo viability; type: cell-based
Experimental: Human Jurkat cells were seeded in 96-well plates (20000 cells per well). Different concentrations of the compounds were added one hour prior to Velcade treatment, followed by the addition of 50 nM Velcade. After incubation for 24 hours, cell viability was measured by CellTiter-Glo Luminescent Cell Viability Assay.
as §1

RIPK1 = biological target: T1, RIPK1 (Homo sapiens, UniProt Q13546); assay: Activation of overexpressed Flag-RIPK1 in HEK293T cells (p-S166); type: cell-based; settings: 10 μM, 12 h
T1 construct: expressed in transfected cells; host or cells: HEK293T
T1 sequence (Q13546 whole entry, species assumed): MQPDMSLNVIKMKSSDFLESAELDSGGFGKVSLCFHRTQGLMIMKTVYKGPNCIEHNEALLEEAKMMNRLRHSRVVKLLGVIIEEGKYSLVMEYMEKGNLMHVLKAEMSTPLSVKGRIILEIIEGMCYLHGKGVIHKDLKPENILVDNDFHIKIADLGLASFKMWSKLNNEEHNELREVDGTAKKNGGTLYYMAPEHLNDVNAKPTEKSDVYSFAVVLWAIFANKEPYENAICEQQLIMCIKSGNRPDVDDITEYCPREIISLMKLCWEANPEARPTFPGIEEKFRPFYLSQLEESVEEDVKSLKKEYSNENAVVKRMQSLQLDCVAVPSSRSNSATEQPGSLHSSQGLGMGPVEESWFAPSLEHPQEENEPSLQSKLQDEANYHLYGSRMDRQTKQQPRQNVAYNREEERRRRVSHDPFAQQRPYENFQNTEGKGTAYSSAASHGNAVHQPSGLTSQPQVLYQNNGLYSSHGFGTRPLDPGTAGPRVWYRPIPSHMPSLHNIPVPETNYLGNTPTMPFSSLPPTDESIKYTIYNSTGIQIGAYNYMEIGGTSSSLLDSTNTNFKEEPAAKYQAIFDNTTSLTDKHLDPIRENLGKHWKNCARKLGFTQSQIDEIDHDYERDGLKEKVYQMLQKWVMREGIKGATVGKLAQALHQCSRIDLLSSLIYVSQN
Experimental: The activation of RIPK1 was determined by immunoblotting using p-S166 RIPK1 antibody.

MEFs, BV2 cells, BMDMs = assay: Inflammatory responses in cells stimulated with TNFα or PAMPs; type: cell-based; settings: 10 μM
Experimental: The protein levels of iNOS and Cox2 were determined by immunoblotting.
TNFα production was determined by ELISA.
The cells were then treated with Apt-1 (10 μM) or Nec-1s (10 μM) for 1 h and MDP (10 μg/ml) was added to cells directly and treated for 8 h. TNFα production was determined by ELISA. Mean ±s.d. from technical triplicates (n=3), representative of 3 independent experiments.

TRADD-N = biological target: T2, TRADD-N (Homo sapiens, UniProt Q15628); assay: STD-NMR binding to TRADD-N; settings: 1 mM compound, 13 μM TRADD-N
T2 construct: expression constructs encoding Flag-TRADD-N(1-179) and HA-TRADD-C(180-312); His (N); made in house
T2 sequence (Q15628 1-179): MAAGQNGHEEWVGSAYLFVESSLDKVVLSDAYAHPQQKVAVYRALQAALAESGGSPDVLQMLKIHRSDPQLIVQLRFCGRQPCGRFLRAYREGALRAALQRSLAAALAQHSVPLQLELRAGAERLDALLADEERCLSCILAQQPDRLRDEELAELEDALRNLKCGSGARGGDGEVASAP
Experimental: The on-resonance irradiation of TRADD-N was performed at a chemical shift of −0.5 ppm, whereas the off-resonance irradiation was conducted at 37 ppm. Spectra were acquired using the following parameters: spectral window of 6.4 kHz, number of scans at 320, acquisition time of 2 s, and repetition time of 3 s. The decrease in signal intensity in STD spectrum, resulting from the transfer of saturation from the protein to the ligand, is evaluated by subtracting the on-resonance spectrum from the off-resonance spectrum. This subtraction yields a positive signal from a bound ligand. The asterisks indicate the signals of the compounds.
This saturation quickly propagates throughout the protein by spin diffusion and is transferred to the ligand, which only occurs if it is bound, leading to reduced intensities of the ligand. The STD spectra were acquired on a 400 MHz spectrometer (ICCB-19 and Apt-1) or 800 MHz spectrometer (ICCB-19i). The samples for STD NMR were prepared as 13 μM TRADD-N or TRADD-N(G121A) with 1 mM Apt-1, ICCB-19 or ICCB-19i in 0.5 mL of PBS in D2O (10%). […] The decrease in signal intensity in STD spectrum, resulting from the transfer of saturation from the protein to the ligand, is evaluated by subtracting the on-resonance spectrum from the off-resonance spectrum.

[1] = FIG. 5b, Velcade 50 nM, 24 h, read-out: IC50 of inhibition of Velcade-induced apoptosis
[2] = Table 3, 50 nM Velcade, 24 hours, read-out: Jurkat Velcade IC50/μM

Row | IC50 (Human Jurkat cells; Table 1, 50 nM Velcade, 24 hours, read-out: Apoptosis of Jurkat cells induced by Velcade (IC50 μM)) [µM] | SMILES | protection against RDA models (MEFs) | IC50 (MEFs) [nM] | effect on mTOR (mTOR) | IC50 (Human Jurkat cells; [1]) [µM] | IC50 (Human Jurkat cells; [2]) [µM] | inhibition of activation of overexpressed RIPK1 (RIPK1) | production of inflammatory target genes and inflammatory cytokines (MEFs, BV2 cells, BMDMs) | binding with TRADD-N by STD-NMR (TRADD-N)
1 |  | CN1CCN=C1SC(C(=O)NC1CCCCCC1)c1ccccc1 (centres unmarked) [Compound 30] | protected against multiple RDA models | ~1000 | no effect on mTOR | ~1 | 0.799 | cannot inhibit | reduced production | could bind with TRADD-N
2 | 1.1 | O=C(CSC1=NCCN1)NC1CCCCCC1 [ICCB-19] | protected against multiple RDA models | ~1000 | no effect on mTOR | ~1 | 1.12 | cannot inhibit | reduced production | could bind with TRADD-N
